Measurements from ChEMBL document CHEMBL1156070, “Functional and biochemical analysis of a key series of ramoplanin analogues” (Bioorg Med Chem Lett, 2009).
In brackets after ≈: the same amount, converted by molar mass. Activity calls are given as the source filed them. No cut-off for these calls is given here.

Tests used:
[1] = Binding affinity to synthetic lipid 2 analogue fl-LPII
Staphylococcus aureus = test: Antibacterial activity against Staphylococcus aureus ATCC 29213 after 24 hrs by microdilution assay; assay type: functional; settings: ATCC 29213, 24 h
Escherichia coli = test: Inhibition of Escherichia coli PBP1b-mediated lipid 2 incorporation into peptidoglycon at 6 uM

Structure (SMILES) | Kd [1] [nM] | MIC (Staphylococcus aureus) [µg/mL] | inhibition (Escherichia coli)
CC(C)C/C=C/C=C/C(=O)N[C@@H](CC(N)=O)C(=O)N[C@H]1CNC(=O)[C@H](c2ccc(O)c(Cl)c2)NC(=O)[C@@H](C)NC(=O)[C@H](CC(C)C)NC(=O)CNC(=O)[C@H](c2ccc(O)cc2)NC(=O)[C@@H]([C@@H](C)O)NC(=O)[C@H](c2ccc(O)cc2)NC(=O)[C@@H](CCCN)NC(=O)C(C)NC(=O)[C@H]([C@H](C)O)NC(=O)[C@@H](c2ccc(O)cc2)NC(=O)[C@H](c2ccc(O)cc2)NC(=O)[C@@H]([C@@H](C)O)NC(=O)[C@@H](CCCN)NC(=O)[C@@H](c2ccc(O)cc2)NC1=O (single isomer, unassigned) | 383 | 1.6 (≈ 0.758 µM) | Active
CC(C)C/C=C/C=C/C(=O)N[C@@H](CC(N)=O)C(=O)N[C@H]1CNC(=O)[C@H](c2ccc(O)c(Cl)c2)NC(=O)[C@@H](C)NC(=O)[C@H](CC(C)C)NC(=O)CNC(=O)[C@H](c2ccc(O)cc2)NC(=O)[C@@H]([C@@H](C)O)NC(=O)[C@H](c2ccc(O)cc2)NC(=O)[C@@H](CCCN)NC(=O)[C@H](Cc2ccccc2)NC(=O)[C@H]([C@H](C)O)NC(=O)[C@@H](c2ccc(O)cc2)NC(=O)[C@H](c2ccc(O)cc2)NC(=O)[C@@H]([C@@H](C)O)NC(=O)[C@H](C)NC(=O)[C@@H](c2ccc(O)cc2)NC1=O | 4300 | 31 (≈ 14.5 µM) | inactive
CC(C)C/C=C/C=C/C(=O)N[C@@H](CC(N)=O)C(=O)N[C@H]1CNC(=O)[C@H](c2ccc(O)c(Cl)c2)NC(=O)[C@@H](C)NC(=O)[C@H](CC(C)C)NC(=O)CNC(=O)[C@H](c2ccc(O)cc2)NC(=O)[C@@H]([C@@H](C)O)NC(=O)[C@H](c2ccc(O)cc2)NC(=O)[C@@H](CCCN)NC(=O)[C@H](Cc2ccccc2)NC(=O)[C@H]([C@H](C)O)NC(=O)[C@@H](c2ccc(O)cc2)NC(=O)[C@H](c2ccc(O)cc2)NC(=O)[C@@H]([C@@H](C)O)NC(=O)[C@@H](CCCN)NC(=O)[C@H](C)NC1=O | – | 13 (≈ 6.17 µM) | Active
CC(C)C/C=C/C=C/C(=O)N[C@@H](CC(N)=O)C(=O)N[C@H]1CNC(=O)[C@H](c2ccc(O)c(Cl)c2)NC(=O)[C@@H](C)NC(=O)[C@H](CC(C)C)NC(=O)CNC(=O)[C@H](c2ccc(O)cc2)NC(=O)[C@@H]([C@@H](C)O)NC(=O)[C@H](c2ccc(O)cc2)NC(=O)[C@@H](CCCN)NC(=O)[C@H](Cc2ccccc2)NC(=O)[C@H]([C@H](C)O)NC(=O)[C@H](C)NC(=O)[C@H](c2ccc(O)cc2)NC(=O)[C@@H]([C@@H](C)O)NC(=O)[C@@H](CCCN)NC(=O)[C@@H](c2ccc(O)cc2)NC1=O | 1200 | 13 (≈ 6.17 µM) | inactive
CC(C)C/C=C/C=C/C(=O)N[C@@H](CC(N)=O)C(=O)N[C@H]1CNC(=O)[C@H](c2ccc(O)c(Cl)c2)NC(=O)[C@@H](C)NC(=O)[C@H](CC(C)C)NC(=O)CNC(=O)[C@H](c2ccc(O)cc2)NC(=O)[C@H](C)NC(=O)[C@H](c2ccc(O)cc2)NC(=O)[C@@H](CCCN)NC(=O)[C@H](Cc2ccccc2)NC(=O)[C@H]([C@H](C)O)NC(=O)[C@@H](c2ccc(O)cc2)NC(=O)[C@H](c2ccc(O)cc2)NC(=O)[C@@H]([C@@H](C)O)NC(=O)[C@@H](CCCN)NC(=O)[C@@H](c2ccc(O)cc2)NC1=O | 5400 | 33 (≈ 15.3 µM) | inactive
CC(C)C/C=C/C=C/C(=O)N[C@@H](CC(N)=O)C(=O)N[C@@H]1C(=O)N[C@H](c2ccc(O)cc2)C(=O)N[C@H](CCCN)C(=O)N[C@H]([C@@H](C)O)C(=O)N[C@@H](c2ccc(O)cc2)C(=O)N[C@H](c2ccc(O)cc2)C(=O)N[C@@H]([C@H](C)O)C(=O)N[C@@H](Cc2ccccc2)C(=O)N[C@H](CCCN)C(=O)N[C@@H](c2ccc(O)cc2)C(=O)N[C@H]([C@@H](C)O)C(=O)N[C@@H](c2ccc(O)cc2)C(=O)NCC(=O)N[C@@H](CC(C)C)C(=O)N[C@H](C)C(=O)N[C@@H](c2ccc(O)c(Cl)c2)C(=O)O[C@@H]1C(N)=O [RAMOPLANIN AGLYCON] | 40 | 0.4 (≈ 0.179 µM) | Active
CC(C)C/C=C/C=C/C(=O)N[C@@H](CC(N)=O)C(=O)N[C@H]1CNC(=O)[C@H](c2ccc(O)c(Cl)c2)NC(=O)[C@@H](C)NC(=O)[C@H](CC(C)C)NC(=O)CNC(=O)[C@H](c2ccc(O)cc2)NC(=O)[C@@H]([C@@H](C)O)NC(=O)[C@H](c2ccc(O)cc2)NC(=O)C(C)NC(=O)[C@H](Cc2ccccc2)NC(=O)[C@H]([C@H](C)O)NC(=O)[C@@H](c2ccc(O)cc2)NC(=O)[C@H](c2ccc(O)cc2)NC(=O)[C@@H]([C@@H](C)O)NC(=O)[C@@H](CCCN)NC(=O)[C@@H](c2ccc(O)cc2)NC1=O (single isomer, unassigned) | 6500 | > 50 | inactive
CC(C)C/C=C/C=C/C(=O)N[C@@H](CC(N)=O)C(=O)N[C@H]1CNC(=O)[C@H](c2ccc(O)c(Cl)c2)NC(=O)[C@@H](C)NC(=O)[C@H](CC(C)C)NC(=O)CNC(=O)[C@H](c2ccc(O)cc2)NC(=O)[C@@H]([C@@H](C)O)NC(=O)[C@H](c2ccc(O)cc2)NC(=O)[C@@H](CCCN)NC(=O)[C@H](Cc2ccccc2)NC(=O)[C@H]([C@H](C)O)NC(=O)[C@@H](c2ccc(O)cc2)NC(=O)[C@H](c2ccc(O)cc2)NC(=O)[C@@H]([C@@H](C)O)NC(=O)[C@@H](CCCN)NC(=O)[C@@H](c2ccc(O)cc2)NC1=O | 33 | 0.4 (≈ 0.183 µM) | Active
CC(C)C/C=C/C=C/C(=O)N[C@@H](CC(N)=O)C(=O)N[C@H]1CNC(=O)[C@H](c2ccc(O)c(Cl)c2)NC(=O)[C@@H](C)NC(=O)[C@H](CC(C)C)NC(=O)CNC(=O)[C@H](c2ccc(O)cc2)NC(=O)[C@@H]([C@@H](C)O)NC(=O)[C@H](c2ccc(O)cc2)NC(=O)[C@@H](CCCN)NC(=O)[C@H](Cc2ccccc2)NC(=O)[C@H]([C@H](C)O)NC(=O)[C@@H](c2ccc(O)cc2)NC(=O)[C@H](C)NC(=O)[C@@H]([C@@H](C)O)NC(=O)[C@@H](CCCN)NC(=O)[C@@H](c2ccc(O)cc2)NC1=O | 378 | 1.6 (≈ 0.759 µM) | Active
CC(C)C/C=C/C=C/C(=O)N[C@@H](CC(N)=O)C(=O)N[C@H]1CNC(=O)[C@H](c2ccc(O)c(Cl)c2)NC(=O)[C@@H](C)NC(=O)[C@H](CC(C)C)NC(=O)CNC(=O)[C@H](c2ccc(O)cc2)NC(=O)[C@@H]([C@@H](C)O)NC(=O)[C@H](c2ccc(O)cc2)NC(=O)[C@@H](CCCN)NC(=O)[C@H](Cc2ccccc2)NC(=O)[C@H]([C@H](C)O)NC(=O)[C@@H](c2ccc(O)cc2)NC(=O)[C@H](c2ccc(O)cc2)NC(=O)[C@@H](C)NC(=O)[C@@H](CCCN)NC(=O)[C@@H](c2ccc(O)cc2)NC1=O | 447 | 2.4 (≈ 1.11 µM) | Active
CC(C)C/C=C/C=C/C(=O)N[C@@H](CC(N)=O)C(=O)N[C@H]1CNC(=O)[C@H](c2ccc(O)c(Cl)c2)NC(=O)[C@@H](C)NC(=O)[C@H](CC(C)C)NC(=O)CNC(=O)[C@H](c2ccc(O)cc2)NC(=O)[C@@H]([C@@H](C)O)NC(=O)[C@H](c2ccc(O)cc2)NC(=O)[C@@H](CCCN)NC(=O)[C@H](Cc2ccccc2)NC(=O)[C@H](C)NC(=O)[C@@H](c2ccc(O)cc2)NC(=O)[C@H](c2ccc(O)cc2)NC(=O)[C@@H]([C@@H](C)O)NC(=O)[C@@H](CCCN)NC(=O)[C@@H](c2ccc(O)cc2)NC1=O | 8700 | 38 (≈ 17.6 µM) | inactive
CC(C)C/C=C/C=C/C(=O)N[C@@H](CC(N)=O)C(=O)N[C@H]1CNC(=O)[C@H](c2ccc(O)c(Cl)c2)NC(=O)[C@@H](C)NC(=O)[C@H](CC(C)C)NC(=O)CNC(=O)[C@H](c2ccc(O)cc2)NC(=O)[C@@H]([C@@H](C)O)NC(=O)[C@H](C)NC(=O)[C@@H](CCCN)NC(=O)[C@H](Cc2ccccc2)NC(=O)[C@H]([C@H](C)O)NC(=O)[C@@H](c2ccc(O)cc2)NC(=O)[C@H](c2ccc(O)cc2)NC(=O)[C@@H]([C@@H](C)O)NC(=O)[C@@H](CCCN)NC(=O)[C@@H](c2ccc(O)cc2)NC1=O | 6300 | 6.3 (≈ 2.99 µM) | inactive
